Data: ChEMBL document CHEMBL1139487, “Discovery of corticotropin releasing factor 2 receptor selective sauvagine analogues for treatment of skeletal muscle atrophy” (J Med Chem, 2005)
Square brackets hold non-standard residues; d marks the D form. Peptide text beside a SMILES is read from it. pGlu = O=C1CC[C@@H](C(=O)O)N1

Assays:
[1] = biological target: T1, Corticotropin-releasing factor receptor 1 (Mus musculus) (UniProt P35347); assay: In vitro agonistic activity against mouse corticotropin releasing factor 1 receptor; format: functional
T1 sequence (whole entry): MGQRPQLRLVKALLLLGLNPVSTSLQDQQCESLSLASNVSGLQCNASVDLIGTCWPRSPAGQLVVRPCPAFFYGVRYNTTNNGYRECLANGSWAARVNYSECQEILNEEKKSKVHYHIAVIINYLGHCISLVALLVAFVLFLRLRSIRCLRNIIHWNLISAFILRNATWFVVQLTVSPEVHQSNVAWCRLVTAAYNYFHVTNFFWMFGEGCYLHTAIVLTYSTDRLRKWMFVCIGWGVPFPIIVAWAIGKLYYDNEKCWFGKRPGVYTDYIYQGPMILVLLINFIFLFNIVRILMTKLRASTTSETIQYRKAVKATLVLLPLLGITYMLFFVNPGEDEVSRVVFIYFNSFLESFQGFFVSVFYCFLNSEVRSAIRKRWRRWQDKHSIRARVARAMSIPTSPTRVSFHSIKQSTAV

Mus musculus = species: Mus musculus; assay: Selectivity ratio of EC50s for mouse corticotropin releasing factor receptors 1 and 2
[2] = biological target: Corticotropin-releasing factor receptor 2 (Mus musculus) (UniProt Q60748); assay: In vitro agonistic activity against mouse corticotropin releasing factor 2 receptor; format: functional
[3] = biological target: T2, Corticotropin-releasing factor receptor 1 (Mus musculus, UniProt P35347); assay: In vitro effective concentration for mouse corticotropin releasing factor 1 receptor
T2 sequence (P35347 whole entry): T1 sequence (whole entry)

[4] = biological target: Corticotropin-releasing factor receptor 2 (Mus musculus, UniProt Q60748); assay: In vitro effective concentration for mouse corticotropin releasing factor 2 receptor
Sequence of Corticotropin-releasing factor receptor 2 (Q60748 whole entry): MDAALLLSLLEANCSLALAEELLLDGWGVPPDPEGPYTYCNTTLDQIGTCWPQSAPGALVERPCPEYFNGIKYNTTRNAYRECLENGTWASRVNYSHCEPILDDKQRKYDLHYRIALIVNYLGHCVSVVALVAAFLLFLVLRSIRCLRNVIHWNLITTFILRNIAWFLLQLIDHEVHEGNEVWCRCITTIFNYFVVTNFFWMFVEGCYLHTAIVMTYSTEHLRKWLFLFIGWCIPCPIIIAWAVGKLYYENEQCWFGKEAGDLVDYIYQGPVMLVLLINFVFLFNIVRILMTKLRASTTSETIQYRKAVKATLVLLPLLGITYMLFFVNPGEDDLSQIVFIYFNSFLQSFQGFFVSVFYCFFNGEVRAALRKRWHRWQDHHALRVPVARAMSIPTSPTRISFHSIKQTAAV

Sequence of Corticotropin-releasing factor receptor 2 (Mus musculus) (Q60748 whole entry): as above

Molecule	Emax [1]	Selectivity (Mus musculus)	Emax [2]	EC50 [3]	EC50 [4]
CC[C@H](C)[C@H](NC(=O)[C@@H](NC(=O)[C@H](CC(=O)O)NC(=O)[C@H](CC(C)C)NC(=O)[C@H](CC(C)C)NC(=O)[C@H](CC(C)C)NC(=O)[C@H](CCCN=C(N)N)NC(=O)[C@H](CC(N)=O)NC(=O)[C@H](CC(N)=O)NC(=O)[C@H](C)NC(=O)[C@H](C)NC(=O)[C@H](CCC(N)=O)NC(=O)[C@H](CCC(N)=O)NC(=O)[C@H](CCCCN)NC(=O)[C@H](CCC(=O)O)NC(=O)[C@H](CCCCN)NC(=O)[C@H](CCC(=O)O)NC(=O)[C@H](CCC(N)=O)NC(=O)[C@H](CCCCN)NC(=O)[C@H](CCC(=O)O)NC(=O)[C@@H](NC(=O)[C@H](CCC(=O)O)NC(=O)[C@@H](NC(=O)[C@H](CCSC)NC(=O)[C@H](CCCCN)NC(=O)[C@H](CCCN=C(N)N)NC(=O)[C@H](CC(C)C)NC(=O)[C@H](CC(C)C)NC(=O)[C@H](CCC(=O)O)NC(=O)[C@H](CC(C)C)NC(=O)[C@@H]1CCCN1C(=O)[C@H](CC(C)C)NC(=O)[C@H](CC(=O)O)NC(=O)[C@@H](NC(=O)[C@H](CO)NC(=O)[C@@H](NC(=O)[C@@H]1CCCN1C(=O)[C@@H]1CCCN1C(=O)CNC(=O)[C@@H]1CCC(=O)N1)[C@@H](C)CC)[C@@H](C)CC)[C@@H](C)CC)[C@@H](C)CC)[C@@H](C)O)C(=O)O	99%	9	95%		
CC[C@H](C)[C@H](NC(=O)[C@@H](NC(=O)[C@H](CC(=O)O)NC(=O)[C@H](CC(C)C)NC(=O)[C@H](CC(C)C)NC(=O)[C@H](CC(C)C)NC(=O)[C@H](CCCN=C(N)N)NC(=O)[C@H](CC(N)=O)NC(=O)[C@H](CC(N)=O)NC(=O)[C@H](C)NC(=O)[C@H](C)NC(=O)[C@H](CCC(N)=O)NC(=O)[C@H](CCC(N)=O)NC(=O)[C@H](CCCCN)NC(=O)[C@H](CCC(=O)O)NC(=O)[C@H](CCCCN)NC(=O)[C@H](CCC(=O)O)NC(=O)[C@H](CCC(N)=O)NC(=O)[C@H](CCCCN)NC(=O)[C@H](CCC(=O)O)NC(=O)[C@@H](NC(=O)[C@H](CCC(=O)O)NC(=O)[C@@H](NC(=O)[C@H](CCSC)NC(=O)[C@H](CCCCN)NC(=O)[C@H](CCCN=C(N)N)NC(=O)[C@H](CC(C)C)NC(=O)[C@H](CC(C)C)NC(=O)[C@H](CC(C)C)NC(=O)[C@H](Cc1ccc(O)cc1)NC(=O)[C@@H]1CCCN1C(=O)[C@H](CC(C)C)NC(=O)[C@H](CC(=O)O)NC(=O)[C@@H](NC(=O)[C@H](CO)NC(=O)[C@@H](NC(=O)[C@@H]1CCCN1C(=O)[C@@H]1CCCN1C(=O)CNC(=O)[C@@H]1CCC(=O)N1)[C@@H](C)CC)[C@@H](C)CC)[C@@H](C)CC)[C@@H](C)CC)[C@@H](C)O)C(=O)O	86%	15	94%		
CC[C@H](C)[C@H](NC(=O)[C@@H](NC(=O)[C@H](CC(=O)O)NC(=O)[C@H](CC(C)C)NC(=O)[C@H](CC(C)C)NC(=O)[C@H](CC(C)C)NC(=O)[C@H](CCCN=C(N)N)NC(=O)[C@H](CC(N)=O)NC(=O)[C@H](CC(N)=O)NC(=O)[C@H](C)NC(=O)[C@H](C)NC(=O)[C@H](CCC(N)=O)NC(=O)[C@H](CCC(N)=O)NC(=O)[C@H](CCCCN)NC(=O)[C@H](CCC(=O)O)NC(=O)[C@H](CCCCN)NC(=O)[C@H](CCC(=O)O)NC(=O)[C@H](CCC(N)=O)NC(=O)[C@H](CCCCN)NC(=O)[C@H](CCC(=O)O)NC(=O)[C@@H](NC(=O)[C@H](CCC(=O)O)NC(=O)[C@@H](NC(=O)[C@H](CCSC)NC(=O)[C@H](CCCCN)NC(=O)[C@H](CCCN=C(N)N)NC(=O)[C@H](CC(C)C)NC(=O)[C@H](CC(C)C)NC(=O)[C@H](CCC(N)=O)NC(=O)[C@H](Cc1ccc(O)cc1)NC(=O)[C@@H]1CCCN1C(=O)[C@H](CC(C)C)NC(=O)[C@H](CC(=O)O)NC(=O)[C@@H](NC(=O)[C@H](CO)NC(=O)[C@@H](NC(=O)[C@@H]1CCCN1C(=O)[C@@H]1CCCN1C(=O)CNC(=O)[C@@H]1CCC(=O)N1)[C@@H](C)CC)[C@@H](C)CC)[C@@H](C)CC)[C@@H](C)CC)[C@@H](C)O)C(=O)O	100%	47	99%		
CC[C@H](C)[C@H](NC(=O)[C@@H](NC(=O)[C@H](CC(=O)O)NC(=O)[C@H](CC(C)C)NC(=O)[C@H](CC(C)C)NC(=O)[C@H](CC(C)C)NC(=O)[C@H](CCCN=C(N)N)NC(=O)[C@H](CC(N)=O)NC(=O)[C@H](CC(N)=O)NC(=O)[C@H](C)NC(=O)[C@H](C)NC(=O)[C@H](CCC(N)=O)NC(=O)[C@H](CCC(N)=O)NC(=O)[C@H](CCCCN)NC(=O)[C@H](CCC(=O)O)NC(=O)[C@H](CCCCN)NC(=O)[C@H](CCC(=O)O)NC(=O)[C@H](CCC(N)=O)NC(=O)[C@H](CCCCN)NC(=O)[C@H](CCC(=O)O)NC(=O)[C@@H](NC(=O)[C@H](CCC(=O)O)NC(=O)[C@@H](NC(=O)[C@H](CCSC)NC(=O)[C@H](CCCCN)NC(=O)[C@H](CCCN=C(N)N)NC(=O)[C@H](CC(C)C)NC(=O)[C@H](CC(C)C)NC(=O)CNC(=O)[C@H](CC(C)C)NC(=O)[C@@H]1CCCN1C(=O)[C@H](CC(C)C)NC(=O)[C@H](CC(=O)O)NC(=O)[C@@H](NC(=O)[C@H](CO)NC(=O)[C@@H](NC(=O)[C@@H]1CCCN1C(=O)[C@@H]1CCCN1C(=O)CNC(=O)[C@@H]1CCC(=O)N1)[C@@H](C)CC)[C@@H](C)CC)[C@@H](C)CC)[C@@H](C)CC)[C@@H](C)O)C(=O)O ([pGlu]GPPISIDLPLGLLRKMIEIEKQEKEKQQAANNRLLLDTI-OH)	99%	14	82%		
CC[C@H](C)[C@H](NC(=O)[C@@H](NC(=O)[C@H](CC(=O)O)NC(=O)[C@H](CC(C)C)NC(=O)[C@H](CC(C)C)NC(=O)[C@H](CC(C)C)NC(=O)[C@H](CCCNC(=N)N)NC(=O)[C@H](CC(N)=O)NC(=O)[C@H](CC(N)=O)NC(=O)[C@H](C)NC(=O)[C@H](C)NC(=O)[C@H](CCC(N)=O)NC(=O)[C@H](CCC(N)=O)NC(=O)[C@H](CCCCN)NC(=O)[C@H](CCC(=O)O)NC(=O)[C@H](CCCCN)NC(=O)[C@H](CCC(=O)O)NC(=O)[C@H](CCC(N)=O)NC(=O)[C@H](CCCCN)NC(=O)[C@H](CCC(=O)O)NC(=O)[C@@H](NC(=O)[C@H](CCC(=O)O)NC(=O)[C@@H](NC(=O)[C@H](CCSC)NC(=O)[C@H](CCCCN)NC(=O)[C@H](CCCNC(=N)N)NC(=O)[C@H](CC(C)C)NC(=O)[C@H](CC(C)C)NC(=O)[C@H](Cc1ccccc1)NC(=O)[C@H](Cc1ccc(O)cc1)NC(=O)[C@@H]1CCCN1C(=O)[C@H](CC(C)C)NC(=O)[C@H](CC(=O)O)NC(=O)[C@@H](NC(=O)[C@H](CO)NC(=O)[C@@H](NC(=O)[C@@H]1CCCN1C(=O)[C@@H]1CCCN1C(=O)CNC(=O)[C@@H]1CCC(=O)N1)[C@@H](C)CC)[C@@H](C)CC)[C@@H](C)CC)[C@@H](C)CC)[C@@H](C)O)C(=O)O				63.6 nM	4.1 nM
H-IVLSLDVPIGLLQILLEQARARAAREQATTNARILARV-OH [HUMAN UROCORTIN 2]				> 1000 nM	4.3 nM
CC[C@H](C)[C@H](NC(=O)[C@@H](NC(=O)[C@H](CC(=O)O)NC(=O)[C@H](CC(C)C)NC(=O)[C@H](CC(C)C)NC(=O)[C@H](CC(C)C)NC(=O)[C@H](CCCNC(=N)N)NC(=O)[C@H](CC(N)=O)NC(=O)[C@H](CC(N)=O)NC(=O)[C@H](C)NC(=O)[C@H](C)NC(=O)[C@H](CCC(N)=O)NC(=O)[C@H](CCC(N)=O)NC(=O)[C@H](CCCCN)NC(=O)[C@H](CCC(=O)O)NC(=O)[C@H](CCCCN)NC(=O)[C@H](CCC(=O)O)NC(=O)[C@H](CCC(N)=O)NC(=O)[C@H](CCCCN)NC(=O)[C@H](CCC(=O)O)NC(=O)[C@@H](NC(=O)[C@H](CCC(=O)O)NC(=O)[C@@H](NC(=O)[C@H](CCSC)NC(=O)[C@H](CCCCN)NC(=O)[C@H](CCCNC(=N)N)NC(=O)[C@H](CC(C)C)NC(=O)[C@H](CC(C)C)NC(=O)[C@H](CC(C)C)NC(=O)[C@H](Cc1ccc(O)cc1)NC(=O)[C@@H]1CCCN1C(=O)[C@H](CC(C)C)NC(=O)[C@H](CC(=O)O)NC(=O)[C@@H](NC(=O)[C@H](CO)NC(=O)[C@@H](NC(=O)[C@@H]1CCCN1C(=O)[C@@H]1CCCN1C(=O)CNC(=O)[C@@H]1CCC(=O)N1)[C@@H](C)CC)[C@@H](C)CC)[C@@H](C)CC)[C@@H](C)CC)[C@@H](C)O)C(=O)O				76.2 nM	5.2 nM
CC[C@H](C)[C@H](NC(=O)[C@@H](NC(=O)[C@H](CC(=O)O)NC(=O)[C@H](CC(C)C)NC(=O)[C@H](CC(C)C)NC(=O)[C@H](CC(C)C)NC(=O)[C@H](CCCNC(=N)N)NC(=O)[C@H](CC(N)=O)NC(=O)[C@H](CC(N)=O)NC(=O)[C@H](C)NC(=O)[C@H](C)NC(=O)[C@H](CCC(N)=O)NC(=O)[C@H](CCC(N)=O)NC(=O)[C@H](CCCCN)NC(=O)[C@H](CCC(=O)O)NC(=O)[C@H](CCCCN)NC(=O)[C@H](CCC(=O)O)NC(=O)[C@H](CCC(N)=O)NC(=O)[C@H](CCCCN)NC(=O)[C@H](CCC(=O)O)NC(=O)[C@@H](NC(=O)[C@H](CCC(=O)O)NC(=O)[C@@H](NC(=O)[C@H](CCSC)NC(=O)[C@H](CCCCN)NC(=O)[C@H](CCCNC(=N)N)NC(=O)[C@H](CC(C)C)NC(=O)[C@H](CC(C)C)NC(=O)[C@@H](NC(=O)[C@H](CCC(N)=O)NC(=O)[C@@H]1CCCN1C(=O)[C@H](CC(C)C)NC(=O)[C@H](CC(=O)O)NC(=O)[C@@H](NC(=O)[C@H](CO)NC(=O)[C@@H](NC(=O)[C@@H]1CCCN1C(=O)[C@@H]1CCCN1C(=O)CNC(=O)[C@@H]1CCC(=O)N1)[C@@H](C)CC)[C@@H](C)CC)[C@@H](C)CC)[C@@H](C)CC)[C@@H](C)CC)[C@@H](C)O)C(=O)O				707 nM	8.5 nM
